Experimental data taken from patent US11780851B2, “LRRK2 inhibitors” (H. Lundbeck A/S, priority 2021, dated 2023).

How the values were obtained:
[1] = target: T1, LRRK2 G2019S (Homo sapiens, UniProt Q5S007, G2019S); assay: LRRK2 G2019S kinase activity assay (LanthaScreen TR-FRET); format: biochemical; conditions: 250 pM LRRK2 G2019S, 1.3 mM ATP, 3 h at 30° C.; n≥2 tests
T1 construct: purchased Invitrogen (Life Technologies Corporation)
Procedure: (§1) LRRK2 kinase activity was measured using a LanthaScreen kinase activity assay available from Invitrogen (Life Technologies Corporation). The assay is a homogeneous time resolved-fluorescence resonance energy transfer (TR-FRET) assay that measures phosphorylation of a fluorescein-labelled peptide substrate Fluorescein-ERM LRRKtide obtainable from Life Technologies Corporation as a result of LRRK2 kinase activity. The phosphorylated peptide is recognized by a terbium-labelled phospho-specific anti-LRRKtide antibody (pLRRKtide antibody), obtainable from Life Technologies Corporation and, subsequently, the phosphorylated LRRKtide can be quantified by the extent of TR-FRET between the terbium donor and fluorescein acceptor. The LRRK2 kinase was obtained from Invitrogen (Life Technologies Corporation) and comprises residue 970 to 2527 of the full length human wild-type LRRK2 kinase, or a similar sequence with the G2019S mutation. As discussed above, this mutation increases the kinase activity relative to the wild type. The kinase reactions were performed in a 20 μL volume in 384-well plates. […] The mixture was further incubated for 30 minutes at RT. […] The measurement was repeated 30 times for fluorescein and 30 times for terbium emission with a 1000 μs time window between repeats. TR-FRET measurements were performed on a Biotek Synergy plate. The TR-FRET signal was calculated as the emission-ratio at 520 nm over 495 nm. The TR-FRET ratio readout for test compounds was normalized to 0% inhibition corresponding to TR-FRET ratio measured in control wells with no inhibition of the kinase activity and 100% inhibition corresponding to TR-FRET ratio measured in control wells with inhibitor. […] C is the IC50 value and D is the Hill slope coefficient. IC50 estimates were obtained from independent experiment and the logarithmic average was calculated.

[2] = target: T2, LRRK2 WT (Homo sapiens, UniProt Q5S007); assay: LRRK2 wild-type kinase activity assay (LanthaScreen TR-FRET); format: biochemical; conditions: 1 nM LRRK2 WT, 1.3 mM ATP, 3.5 h at 30° C.; n≥2 tests
T2 construct: comprises residue 970 to 2527 of the full length human wild-type LRRK2 kinase; purchased Invitrogen (Life Technologies Corporation)
T2 sequence (Q5S007 970-2527): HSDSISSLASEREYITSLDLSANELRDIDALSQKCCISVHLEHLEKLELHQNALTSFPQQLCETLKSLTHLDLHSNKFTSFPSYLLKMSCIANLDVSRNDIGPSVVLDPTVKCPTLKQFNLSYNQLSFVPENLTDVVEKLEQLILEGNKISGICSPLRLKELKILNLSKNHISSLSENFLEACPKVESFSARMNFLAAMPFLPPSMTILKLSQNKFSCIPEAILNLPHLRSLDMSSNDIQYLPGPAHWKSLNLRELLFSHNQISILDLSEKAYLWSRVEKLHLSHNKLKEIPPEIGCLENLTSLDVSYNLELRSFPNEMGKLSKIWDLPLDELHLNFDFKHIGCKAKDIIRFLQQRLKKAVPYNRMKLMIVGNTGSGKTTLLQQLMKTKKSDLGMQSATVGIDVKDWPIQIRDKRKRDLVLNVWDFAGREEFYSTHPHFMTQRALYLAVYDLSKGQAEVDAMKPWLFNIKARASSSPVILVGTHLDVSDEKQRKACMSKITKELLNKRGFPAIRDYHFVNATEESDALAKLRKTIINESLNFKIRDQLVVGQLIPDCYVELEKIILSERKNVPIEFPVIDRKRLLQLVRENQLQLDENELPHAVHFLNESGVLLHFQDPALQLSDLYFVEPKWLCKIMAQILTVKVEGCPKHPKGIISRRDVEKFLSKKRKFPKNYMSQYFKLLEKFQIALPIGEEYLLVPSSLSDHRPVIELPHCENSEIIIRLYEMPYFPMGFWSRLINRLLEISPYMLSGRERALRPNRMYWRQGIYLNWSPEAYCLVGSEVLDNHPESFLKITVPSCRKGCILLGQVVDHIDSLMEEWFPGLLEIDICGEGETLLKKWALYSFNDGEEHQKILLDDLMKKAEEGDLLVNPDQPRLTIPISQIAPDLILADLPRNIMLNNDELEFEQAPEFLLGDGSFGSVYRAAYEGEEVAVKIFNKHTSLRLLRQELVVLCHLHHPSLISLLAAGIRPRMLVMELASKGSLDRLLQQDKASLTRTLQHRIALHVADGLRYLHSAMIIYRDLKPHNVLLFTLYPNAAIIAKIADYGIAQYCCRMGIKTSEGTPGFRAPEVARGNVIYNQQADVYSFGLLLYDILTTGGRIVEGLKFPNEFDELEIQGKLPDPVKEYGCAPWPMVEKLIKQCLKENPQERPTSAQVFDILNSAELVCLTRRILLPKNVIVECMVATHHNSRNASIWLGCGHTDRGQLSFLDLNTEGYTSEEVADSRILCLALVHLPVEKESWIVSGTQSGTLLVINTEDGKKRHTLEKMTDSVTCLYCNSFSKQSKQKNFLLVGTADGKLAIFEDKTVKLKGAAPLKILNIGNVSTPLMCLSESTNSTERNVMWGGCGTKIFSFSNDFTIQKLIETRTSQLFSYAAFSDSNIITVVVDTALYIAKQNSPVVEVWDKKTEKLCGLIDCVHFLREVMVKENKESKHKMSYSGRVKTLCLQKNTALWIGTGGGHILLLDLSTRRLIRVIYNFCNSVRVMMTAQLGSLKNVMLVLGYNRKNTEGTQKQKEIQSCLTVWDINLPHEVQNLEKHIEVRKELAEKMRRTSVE
Procedure: as §1

T1 sequence (Q5S007 970-2527 G2019S): as the sequence (Q5S007 970-2527) above, with G1050S counted along it

IC50 [1] | IC50 [2] | Structure (SMILES)
3.7 nM | 10 nM | Cc1c2c(nn1[C@@H]1CCOC[C@@H]1C)OCCCn1nc(Cl)c3cnc(nc31)N2 (single isomer, unassigned) [Example 21, 8-Chloro-3-methyl-2-((3R,4S) or (3S,4R) or (3S,4S) or (3R,4R)-3-methyltetrahydro-2H-pyran-4-yl)-2,4,12,13-tetrahydro-11H-5,7-(azenometheno)dipyrazolo[3,4-b:5′,1′-g][1]oxa[4,6,8]triazacycloundecine]
3.5 nM | 10 nM | Cc1c2c(nn1[C@@H]1CCOC[C@@H]1C)OCCCn1nc(Cl)c3cnc(nc31)N2 (single isomer, unassigned) [Example 22, 8-Chloro-3-methyl-2-((3R,4S) or (3S,4R) or (3S,4S) or (3R,4R)-3-methyltetrahydro-2H-pyran-4-yl)-2,4,12,13-tetrahydro-11H-5,7-(azenometheno)dipyrazolo[3,4-b:5′,1′-g][1]oxa[4,6,8]triazacycloundecine]
20 nM | 44 nM | Cc1c2c(nn1[C@@H]1CCOC[C@@H]1C)OCCCn1nc(Cl)c3cnc(nc31)N2 (single isomer, unassigned) [Example 23, 8-Chloro-3-methyl-2-((3R,4S) or (3S,4R) or (3S,4S) or (3R,4R)-3-methyltetrahydro-2H-pyran-4-yl)-2,4,12,13-tetrahydro-11H-5,7-(azenometheno)dipyrazolo[3,4-b:5′,1′-g][1]oxa[4,6,8]triazacycloundecine]
4.7 nM | 14 nM | Cc1c2c(nn1[C@@H]1CCOC[C@@H]1C)OCCCn1nc(Cl)c3cnc(nc31)N2 (single isomer, unassigned) [Example 24, 8-Chloro-3-methyl-2-((3R,4S) or (3S,4R) or (3S,4S) or (3R,4R)-3-methyltetrahydro-2H-pyran-4-yl)-2,4,12,13-tetrahydro-11H-5,7-(azenometheno)dipyrazolo[3,4-b:5′,1′-g][1]oxa[4,6,8]triazacycloundecine]
5.3 nM | 19 nM | Cc1c2c(nn1[C@H]1CCCCOC1)OCCCn1nc(Cl)c3cnc(nc31)N2 (single isomer, unassigned) [Example 28, (+)-(R) or (S)-8-Chloro-3-methyl-2-(oxepan-3-yl)-2,4,12,13-tetrahydro-11H-5,7-(azenometheno)dipyrazolo[3,4-b:5′,1′-g][1]oxa[4,6,8]triazacycloundecine]
7.8 nM | 19 nM | Cc1c2c(nn1[C@@H]1CC1(F)F)OCCCn1nc(Cl)c3cnc(nc31)N2 (single isomer, unassigned) [Example 39, (−)-(R) or (S)-8-Chloro-2-(2,2-difluorocyclopropyl)-3-methyl-2,4,12,13-tetrahydro-11H-5,7-(azenometheno)dipyrazolo[3,4-b:5′,1′-g][1]oxa[4,6,8]triazacycloundecine]
5.3 nM | 17 nM | Cc1c2c(nn1[C@H]1CCOC(C)(C)C1)OCCCn1nc(Cl)c3cnc(nc31)N2 (single isomer, unassigned) [Example 43, (−)-(R) or (S)-8-Chloro-2-(2,2-dimethyltetrahydro-2H-pyran-4-yl)-3-methyl-2,4,12,13-tetrahydro-11H-5,7-(azenometheno)dipyrazolo[3,4-b:5′,1′-g][1]oxa[4,6,8]triazacycloundecine]
18 nM | 90 nM | Cc1c2c(nn1[C@H]1CCOC[C@]1(C)F)OCCCn1nc(Cl)c3cnc(nc31)N2 (single isomer, unassigned) [Example 48, (−)-8-Chloro-2-((3R,4S) or (3S,4R)-3-Fluoro-3-methyltetrahydro-2H-pyran-4-yl)-3-methyl-2,4,12,13-tetrahydro-11H-5,7-(azenometheno)dipyrazolo[3,4-b:5′,1′-g][1]oxa[4,6,8]triazacycloundecine]
0.88 nM | 2.6 nM | Cc1c2c(nn1[C@@H]1CCOC3(CC3)C1)OCCCn1nc(Cl)c3cnc(nc31)N2 (single isomer, unassigned) [Example 54, (−)-(R) or (S)-8-Chloro-3-methyl-2-(4-oxaspiro[2.5]octan-7-yl)-2,4,12,13-tetrahydro-11H-5,7-(azenometheno)dipyrazolo[3,4-b:5′,1′-g][1]oxa[4,6,8]triazacycloundecine]
1.5 nM | 5.6 nM | CCc1c2c(nn1[C@@H]1CCOC[C@H]1F)OCCCn1nc(Cl)c3cnc(nc31)N2 (single isomer, unassigned) [Example 55, (+)-8-Chloro-3-ethyl-2-((3R,4S) or (3S,4R)-3-fluorotetrahydro-2H-pyran-4-yl)-2,4,12,13-tetrahydro-11H-5,7-(azenometheno)dipyrazolo[3,4-b:5′,1′-g][1]oxa[4,6,8]triazacycloundecine]
2 nM | 4.9 nM | CCc1c2c(nn1[C@@H]1CCOC[C@H]1F)OCCCn1nc(Cl)c3cnc(nc31)N2 (single isomer, unassigned) [Example 56, (−)-8-Chloro-3-ethyl-2-((3R,4S) or (3S,4R)-3-fluorotetrahydro-2H-pyran-4-yl)-2,4,12,13-tetrahydro-11H-5,7-(azenometheno)dipyrazolo[3,4-b:5′,1′-g][1]oxa[4,6,8]triazacycloundecine]
4 nM | 11 nM | [2H]C([2H])([2H])c1c2c(nn1[C@@H]1CCOC[C@H]1F)OCCCn1nc(Cl)c3cnc(nc31)N2 (single isomer, unassigned) [Example 63, (+)-8-Chloro-2-((3R,4S) or (3S,4R)-3-fluorotetrahydro-2H-pyran-4-yl)-3-(methyl-d3)-2,4,12,13-tetrahydro-11H-5,7-(azenometheno)dipyrazolo[3,4-b:5′,1′-g][1]oxa[4,6,8]triazacycloundecine]
5 nM | 11 nM | [2H]C([2H])([2H])c1c2c(nn1[C@H]1CCOC3(CC3)C1)OCCCn1nc(Cl)c3cnc(nc31)N2 (single isomer, unassigned) [Example 64, (−)-(R) or (S)-8-Chloro-3-(methyl-d3)-2-(4-oxaspiro[2.5]octan-7-yl)-2,4,12,13-tetrahydro-11H-5,7-(azenometheno)dipyrazolo[3,4-b:5′,1′-g][1]oxa[4,6,8]triazacycloundecine]
1.7 nM | 4.8 nM | [2H]C([2H])([2H])c1c2c(nn1[C@H]1CCOC3(CC3)C1)OCCCn1nc(Cl)c3cnc(nc31)N2 (single isomer, unassigned) [Example 65, (+)-(R) or (S)-8-Chloro-3-(methyl-d3)-2-(4-oxaspiro[2.5]octan-7-yl)-2,4,12,13-tetrahydro-11H-5,7-(azenometheno)dipyrazolo[3,4-b:5′,1′-g][1]oxa[4,6,8]triazacycloundecine]
18 nM | 55 nM | Cc1c2c(nn1C)OCCCn1nc(Cl)c3cnc(nc31)N2 [Example 1, 8-Chloro-2,3-dimethyl-2,4,12,13-tetrahydro-11H-5,7-(azenometheno)dipyrazolo[3,4-b:5′,1′-g][1]oxa[4,6,8]triazacycloundecine]
4.6 nM | 14 nM | Cc1c2c(nn1CC13CC(CO1)C3)OCCCn1nc(Cl)c3cnc(nc31)N2 [Example 11, 2-((2-Oxabicyclo[2.1.1]hexan-1-yl)methyl)-8-chloro-3-methyl-2,4,12,13-tetrahydro-11H-5,7-(azenometheno)dipyrazolo[3,4-b:5′,1′-g][1]oxa[4,6,8]triazacycloundecine]
16 nM | 60 nM | FC1(c2c3c(nn2C2CCOCC2)OCCCn2nc(Cl)c4cnc(nc42)N3)CC1 [Example 16, 8-Chloro-3-(1-fluorocyclopropyl)-2-(tetrahydro-2H-pyran-4-yl)-2,4,12,13-tetrahydro-11H-5,7-(azenometheno)dipyrazolo[3,4-b:5′,1′-g][1]oxa[4,6,8]triazacycloundecine]
5.1 nM | 14 nM | [2H]C1([2H])Oc2nn(C3CCOCC3)c(C)c2Nc2ncc3c(Cl)nn(c3n2)C([2H])([2H])C1([2H])[2H] [Example 20, 8-Chloro-3-methyl-2-(tetrahydro-2H-pyran-4-yl)-2,4,12,13-tetrahydro-11H-5,7-(azenometheno)dipyrazolo[3,4-b:5′,1′-g][1]oxa[4,6,8]triazacycloundecine-11,11,12,12,13,13-d6]

Structure (SMILES) | IC50 [1] | IC50 [2]
Cc1nn2c3nc(ncc13)Nc1c(nn(C3CCOCC3)c1C)OCCC2 [Example 8, 3,8-Dimethyl-2-(tetrahydro-2H-pyran-4-yl)-2,4,12,13-tetrahydro-11H-5,7-(azenometheno)dipyrazolo[3,4-b:5′,1′-g][1]oxa[4,6,8]triazacycloundecine] | 21 nM | 93 nM
Cc1c2c(nn1C1CCOCC1)OCCCn1nc(C#N)c3cnc(nc31)N2 [Example 9, 3-Methyl-2-(tetrahydro-2H-pyran-4-yl)-2,4,12,13-tetrahydro-11H-5,7-(azenometheno)dipyrazolo[3,4-b:5′,1′-g][1]oxa[4,6,8]triazacycloundecine-8-carbonitrile] | 57 nM | 110 nM
